Results on 16 compounds are retold here after patent publication US20240023534A1, “Devices, Compositions and Methods for Insect Control” (Agriculture Victoria Services PTY LTD, priority 2020, published 2024).

Entries after “also recorded” stand apart in the source; their conditions may differ.

Data set [1] relates to C. davidsoni. The data set is described as follows: GC-EAD of beetle antennae to Pichia kluyveri headspace volatiles. Particulars: female and male adults, P. kluyveri headspace volatiles. The text has this: FIG. 6. GC-EAD responses of female (♀) and male (♂) C. davidsoni adults to headspace volatiles (black, FID chromatogram) of the fruit yeast Pichia kluyveri. […] IS=Internal standard, IS1=n-octane, IS2=Nonyl acetate.

Data set [2] in a line: Gravimetric release rate and longevity of lure constituents in LDPE sachets. The format is physicochemical. Particulars: for Est. long. / Release rate: compound on wick in LDPE sachet, thickness, size, load per Table 1. The method, then: The release rates of co-attractant components formulated in low density polyethylene (LDPE) sachets were investigated (FIG. 1).
The release rate and theoretical longevity of the lure constituents in sachets were tested in gravimetric experiments. Data were used to determine the optimal sachet thickness, size (surface area) and estimated longevity of individual components (FIG. 2).
A fixed volume (1 ml) of each lure constituent was individually loaded in 50 cm 2 of different thicknesses (50, 100, 150 and 200 μm). Sachets were weighed daily for the first 5 days and later at greater time intervals. Release rates of the compounds through different sachet thicknesses were inferred using sachet weight loss over time (FIG. 2). Only the linear part of the weight loss curve was considered in the calculations of release rates. The maximum estimated longevity was deduced from the calculated release rate and corrected based on adjusted sachet size and volume of chemical loaded.

Data set [3] in a line: Release of compounds from the commercial co-attractant solution. The conditions noted are these: for Release rate (commercial solution): compound in commercial co-attractant solution; for duration of release in the current solution: current co-attractant solution. The format is physicochemical.
Data set [4] can be described thus: Sachet size, thickness, release rate and lure longevity studies (Table 3, based on GC-MS analysis). The format is physicochemical. The conditions noted are these: for Est. long. / Release rate: LDPE sachet per Table 3, based on GC-MS analysis. As for the experimental part:
Studies determining optimal sachet size and thickness, lure concentration, release rates and lure longevity were performed as described in Table 3.

Another data set relates to Carpophilus truncatus. Nature of the data set: Cage dual-choice bioassay, co-attractant with one ingredient suppressed. In kind it is in vivo. The conditions noted are these: for attractiveness of commercial co-attractant in the absence of the compound / role of the compound: test solution lacking one ingredient vs CL in 45% ethanol, fifty beetles. The method, then: FIG. 9. Boxplots representing the results of lab-conducted cage dual-choice assays on Carpophilus truncatus responses to odours. Between 50 and 100 beetles were simultaneously exposed to a solution of co-attractant […] one ingredient at a time was suppressed (treatments). The attraction index was calculated as follows: (number of beetles in test solution−number of beetles in control)/(total number of beetles). […] Line in the boxplots correspond to the median, top and bottom of the boxplots represent the 75th and 25th percentiles respectively while error bars depict the 5th and 95th percentiles. White dots are outliers. n correspond to the replication of each experiments. p values result from paired t-tests and stars indicate the level of statistical significance.
Fifty beetles were simultaneously exposed to a solution of co-attractant (control) and a solution of co-attractant from which one additive at a time was suppressed (treatments, see table 4). The attraction index was calculated as follows: (number of beetles in test solution—number of beetles in control)/(total number of beetles).

In data set [5] the test system is C. davidsoni. Nature of the data set: Field trial of synthetic blends in peach orchard (Example 6). In kind it is in vivo. The conditions noted are these: CL+2PA, CL+IA, CL+IA+2PA vs CL; five weeks, N=6.
Excerpt: C. davidsoni catches using prototype co-attractant solutions in a stone fruit orchard (Shepparton, VIC). CL corresponds to the control (original Carpophilus Lure co-attractant), CL+IA (co-attractant+Isopentyl Acetate), CL+PA (co-attractant+2-Phenethyl acetate) and CL+IA+PA (co-attractant+Isopentyl Acetate+2-Phenethyl acetate). […] Number of replicates per treatment N=6.
Synthetic blends consisting of the combination of the existing carpophilus lure with two new potential yeast attractants; namely Isopentyl acetate and 2-phenylethyl acetate; were formulated based on their respective ratio to ethyl acetate (Table 2) and tested in the field.
Field trials were conducted in a peach orchard in Invergordon (Victoria). Treatments included the original carpophilus lure (CL: control), the original lure combined with Isopentyl acetate (CL+IA) or with 2-phenylethylacetate (CL+2PA) or both (CL+IA+2PA). Six replicates of each odour blend were placed in black funnel traps held on pickets at 1.5 m height, arranged in randomized transects. Beetles were collected and synthetic blends replaced weekly over a 5-week period.
These compounds were tested either separately or together in the existing Carpophilus co-attractant and compared with the original co-attractant in the field. The trial was conducted over a five week period during which the beetles were collected and the lure solutions renewed weekly.
A further data set relates to C. truncatus. The data set is described as follows: GC-EAD responses to W. rabaulensis odour. The conditions noted are these: W. rabaulensis headspace odour. As for the experimental part: FIG. 10. […] 1-Acetaldehyde. 2-Ethanol. 3-Isobutanol. 4-Isopentyl alcohol. 5-2-Methyl butanol. 6-Isobutyl acetate. 7-Isopentyl acetate.
As co-attractants are derived from microbial odours, beetle attraction towards yeast odours isolated from the insect's gut was tested (Farrukh Baig, PhD thesis, 2020). […] Synthetic blends of the yeast odours were developed and field tested.

`CC(=O)OCc1ccco1` [2-furanmethanol acetate]: the GC-EAD antennal response entry in the data set with C. davidsoni [1] is reported as “consistent physiological responses”.
`CCC(C)CO` (stereo not shown) [2-methyl-butanol]: in data set [2], the Est. long. was 200+ days and the Release rate is on record as 4.3 mg/day. Besides, the “Release rate (commercial solution)” value in data set [3] is given as 0.6 mg/day. Also, in data set [4], the Est. long. is 200+ days and the Release rate was found to be 4.3 mg/day. The GC-EAD antennal response entry in the data set on C. davidsoni [1] was “consistent physiological responses”. The “attractiveness of commercial co-attractant in the absence of the compound / role of the compound” value in the data set with Carpophilus truncatus was “significantly more attractive”.
As to `CC(=O)OCCc1ccccc1` [2-phenylethylacetate], in data set [4], the Est. long. is 70+ days and the Release rate was 28 mg/day. Besides, in data set [4] (dispensed in sachets), the longevity in sachets result is “over 70 days”. Also, in the data set with C. davidsoni [1], the GC-EAD antennal response result is reported as “consistent physiological responses”. Also, the GC-EAD antennal response result in the data set with C. davidsoni [1] (listed as 2-phenethyl acetate) is reported as “strong sensitivity”. For the same compound, the “effect on beetle capture of adding the compound to the original co-attractant (CL)” value in the data set on C. davidsoni [5] is reported as “significantly more beetles”.
As for `CCC(=O)OCCc1ccccc1` [2-phenylethylpropionate], in the data set with C. davidsoni [1], the GC-EAD antennal response entry is recorded as “consistent physiological responses”.
Regarding `CCCCOC(C)=O` [Butyl acetate], the GC-EAD antennal response entry with C. davidsoni [1] is listed as “consistent physiological responses”.
As for `CCCCCCCC(=O)OCC` [Ethyl octanoate], the GC-EAD antennal response result in the data set with C. davidsoni [1] is recorded as “consistent physiological responses”.
Take `CC(=O)OCC(C)C` [Isobutyl acetate]: in the data set on C. davidsoni [1], the GC-EAD antennal response entry is “consistent physiological responses”. Also, the “antennal responses (GC-EAD)” value with C. truncatus is listed as “strong antennal responses”.
Turning to `CC(C)CO` [Isobutyl alcohol], in data set [2], the Est. long. is recorded as 200+ days and the Release rate was found to be 4.9 mg/day. Moreover, the “Release rate (commercial solution)” value in data set [3] stood at 2.9 mg/day. Also, in data set [4], the Est. long. is on record as 200+ days and the Release rate is recorded as 4.9 mg/day. For the same compound, the GC-EAD antennal response entry with C. davidsoni [1] is on record as “consistent physiological responses”. In the data set with Carpophilus truncatus, the “attractiveness of commercial co-attractant in the absence of the compound / role of the compound” value is on record as “seem to not influence”.
For `CC(=O)OCCC(C)C` [Isopentyl acetate], the GC-EAD antennal response entry in the data set with C. davidsoni [1] is on record as “consistent physiological responses; also recorded: strong sensitivity”. Also, the “effect on beetle capture of adding the compound to the original co-attractant (CL)” value in the data set on C. davidsoni [5] is reported as “reduce lure attractiveness”. Further, in the data set with C. truncatus, the “antennal responses (GC-EAD)” value was “strong antennal responses”.
In data set [2], `CC(C)CCO` [Isopentyl alcohol] displayed an Est. long. of 300 days and a Release rate of 3.4 mg/day. In data set [3], the “Release rate (commercial solution)” value is on record as 3.3 mg/day. In data set [4], this compound had an Est. long. of 300 days and a Release rate of 3.4 mg/day. The GC-EAD antennal response result in the data set on C. davidsoni [1] was “consistent physiological responses”. Further, the “effect of increased concentrations on lure efficacy” value in the data set with Carpophilus truncatus (further cage bioassay experiments) is “increase in lure efficacy”. In the data set on Carpophilus truncatus, the “attractiveness of commercial co-attractant in the absence of the compound / role of the compound” value is “significantly less attractive”.
For the compound `CC(=O)OCc1ccccc1` [Phenylmethyl acetate], the GC-EAD antennal response result in the data set with C. davidsoni [1] is listed as “consistent physiological responses”.
The same measure, in the same setting: as for `CCCOC(C)=O` [Propyl acetate], the entry is “consistent physiological responses”.
In the case of `CC=O` [acetaldehyde], the “duration of release when applied in sachets” value in data set [2] (LDPE sachets) came to 1 week. In data set [2], this compound came in with an Est. long. of 7 days and a Release rate of 50 mg/day. For the same compound, in data set [3], the “Release rate (commercial solution)” value was 43 mg/day and the “duration of release in the current solution” value amounted to 1 days. In addition, in data set [4], the Est. long. is 40 days and the Release rate turned out to be 50 mg/day. In addition, in the data set with Carpophilus truncatus, the “attractiveness of commercial co-attractant in the absence of the compound / role of the compound” value was “tend to act as an attractant”.
In the case of `CCO` [ethanol], the “permeation through the LDPE layers” value in data set [2] (LDPE sachets) was “limited permeation”. For the same compound, the “maximum release rate achievable with thin sachets” value in data set [2] (thin LDPE sachets, lab experiments) was ~25 mg/day. In data set [3] (commercial lure), the “ethanol emission rates in the commercial lure” value is listed as 2.5 g/day. Besides, the “attractiveness of commercial co-attractant in the absence of the compound / role of the compound” value in the data set with Carpophilus truncatus was “significantly less attractive”.
For `CCOC(C)=O` [ethyl acetate], the “duration of release when applied in sachets” value in data set [2] (LDPE sachets) worked out at 1 week. Moreover, in data set [2], the Est. long. stood at 15 days and the Release rate was 136 mg/day. Besides, in data set [3], the “Release rate (commercial solution)” value stood at 110 mg/day and the “duration of release in the current solution” value was 1 days. Further, in data set [4], the Est. long. was determined as 15 days and the Release rate was found to be 136 mg/day. Further, in the data set with C. davidsoni [1], the GC-EAD antennal response entry is reported as “consistent physiological responses”. In addition, the “attractiveness of commercial co-attractant in the absence of the compound / role of the compound” value in the data set with Carpophilus truncatus was “seem to not influence”.
`CCC1CCC(=O)O1` (stereo not shown) [γ-caprolactone]: the GC-EAD antennal response entry in the data set with C. davidsoni [1] is recorded as “consistent physiological responses”.
